Here are results for three molecules from article PMC4934371 (Biochemistry, 2016).

The target of data set [1] is T1, triosephosphate isomerase (TbbTIM) (Trypanosoma brucei, UniProt P04789, I172A/L232A). The data set is described as follows: activation of [[…]-13C]-glycolaldehyde turnover followed by 1H NMR, fit to give Kd. It is filed as biochemical.
Data set [2] has as its target T1, triosephosphate isomerase (TbbTIM). The data set is described as follows: X-ray crystal structure. It is filed as biochemical.
The test system of the next data set is O=C[C@H](O)COP(=O)(O)O. The data set can be described thus: steady-state kinetics of isomerization. The settings on record: active site; pH 7.5; 25.0 °C. It counts as biochemical, Trypanosoma brucei.

Molecule `O=[PH](O)O` [HPi, phosphite dianion] registered a Kd in data set [1] of 5.9 ± 0.5 mM.

In data set [2], `O=C(O)COP(=O)(O)O` [PGA, 2-phosphoglycolate] registered a Ki of 0.12 mM. Consider “triosephosphate isomerase (TbbTIM) (Trypanosoma brucei brucei; I172A/L232A)”, for which the catalytic efficiency (kcat/Km) with O=C[C@H](O)COP(=O)(O)O was determined as 350000 M⁻¹ s⁻¹.
